From US20130150350A1, “Derivatives of 1-Phenyl-1,5-Dihydro-Benzo[B] [1,4]Diazepine-2,4-Dione as Inhibitors of HIV Replication” (BOEHRINGER INGELHEIM INTERNATIONAL GMBH, priority 2010, published 2013)

Experiments:
[1] = tested on: HIV-1 replication in C8166 LTRluc cells; assay: C8166 HIV-1 luciferase assay; assay type: cell-based; conditions: Human immunodeficiency virus 1, 72 h, inhibition of HIV-1 replication, moi 0.005, 3 days
Experimental: The assay used to measure inhibition of HIV replication is as described in WO 2004/050643, pages 73-75, herein incorporated by reference, with the following modifications:
Serial dilutions of HIV-1 inhibitors are prepared in complete media from DMSO stock solutions. Eleven serial dilutions of desired concentration are prepared in a 1 mL deep well titer plate (96 wells). The 12th well contains complete media with no inhibitor and serves as the positive control. All samples contain the same concentration of DMSO 0.1% DMSO). Inhibitor is added, to triplicate wells, of a 96 well tissue culture treated clear view black microtiter plate (Corning Costar catalogue #3904). The total volume per well is 200 μL of media containing the cells and inhibitor. The last row is reserved for uninfected C8166 LTRluc cells to serve as the background blank control and the first row is media alone.
Count C8166 LTRluc cells and place in a minimal volume of complete RPMI 1640 in a tissue culture flask (ex. 30×10^6 cells in 10 mL media/25 cm^2 flask). Infect cells with HIV-1 at a moi of 0.005. Incubate cells for 1.5 hours at 37° C. on a rotating rack in a 5% CO2 incubator. Resuspend cells in complete RPMI to give a final concentration of 25,000-cells/well. Add cells to wells of 96 well microtiter plate containing inhibitors. Add 25,000 uninfected C8166—LTRluc cells/well in 200 μL complete RPMI to last row for background control. Incubate cells at 37° C. in 5% CO2 incubator for 3 days.

[2] = biological target: T1, HIV-1NL4-3 CA-NC protein (SEQ ID NO: 2) (Human immunodeficiency virus type 1 group M subtype B, UniProt P12493, G226D); assay: Immobilized capsid assembly assay (CAA); assay type: biochemical; conditions: concentration for 50% inhibition of capsid assembly; 2 μM CA-NC, 2 hours at room temperature; read-out: IC50 (μM) CAA
T1 construct: HIV-1NL4-3 CA-NC, Gag residues 133-432; initiator Met (start codon introduced by PCR primer) (N); made in house; host or cells: E. coli BL21(DE3), pET-11a
Text: (§1) SEQ ID NO: 1 is a nucleic acid of 900 base pairs encoding HIV-1NL4-3 CA-NC, Gag residues 133-432, having the CA G94D mutation (SEQ ID NO: 2). SEQ ID NO: 1, is transferred to pET-11a expression vector (Novagen™) by PCR amplification using primers that introduce an NdeI site and a start codon at the 5′-end and a BamHI site and a stop codon at the 3′-end. Resistance mutations in CA were identified by passage of the HIV-1 virus in the presence of compounds of the invention, namely V27A/I, K30R, S33G, V36T, T58I, G61E, G208A/R, E213G, K30R/T58I, K30R/G208R, V36T/G208R, S33G/T58I, S33G/G208R and T58I/G208R, all numbered with reference to SEQ ID NO: 2,. These resistance mutations may be introduced in the expression vector using the QuikChange® II Site-Directed Mutagenesis Kit (Stratagene) according to the manufacturer's instructions. SEQ ID NOS: 2 is expressed in the BL21(DE3) E. coli cells (Novagen™). Briefly, LB media is inoculated with overnight pre-cultures and grown at 37° C. until mid log-phase (Abs600 ˜0.6), protein expression is induced by addition of 0.5-1 mM isopropyl-β,D-thiogalactopyranoside (IPTG) and carried out for 4 to 6 hours at 30° C. Cells are harvested by centrifugation and pellets are stored at −80° C. until purification.
(§2) Purification of CA-NC (SEQ ID NO: 2) is as follows: 5 to 10 g of cell paste are lysed by sonication in 40 ml of Buffer A [20 mM Tris pH 7.5; 1 μM ZnCl2; 10 mM β-mercaptoethanol] supplemented with 0.5M NaCl and Complete EDTA-free® protease inhibitors tablets (Roche). Nucleic acids and cell debris are removed by adding 0.11 volumes of 0.2 M ammonium sulfate and an equivalent volume of 10% poly-(ethyleneimine) pH 8.0, stirring the sample for 20 minutes at 4° C., followed by centrifugation at 30 000×g for 20 minutes. SEQ ID NO: 2 is recovered from the supernatant by adding 0.35 volumes of saturated ammonium sulfate solution followed by centrifugation at 10 000×g for 15 minutes. The pellet is dissolved in 10 ml of Buffer A+0.1 M NaCl and dialyzed overnight in the same buffer but at 0.05 M NaCl (Dialysis Buffer). The sample is then cleared by centrifugation and passed on a 1-ml HiTrapTMSP HP column (GE Healthcare) pre-equilibrated with Dialysis Buffer. SEQ ID NO: 2 is eluted with Buffer A+0.5 M NaCl, fractions containing the protein are pooled; concentration determination is done by Abs280 using the calculated molar extinction coefficient (E=40220 M-1 cm-1).
Reacti-Bind Neutravidin Coated black 384-well plates (Pierce Cat#15402) are washed with 80 μl/well of Buffer A (50 mM Tris pH 8.0; 350 mM NaCl; 10 μM ZnSO4; 0.0025% CHAPS (w/v); 50 μg/ml bovine serum albumin (BSA); 1 mM DTT). Immobilization of a 5′-end biotin labeled (TG)25 oligonucleotide (Integrated DNA Technology Inc.) is carried out by adding 50 μl/well of a 25 nM solution of oligonucleotide in Buffer A+5 mg/ml of BSA (Sigma™) and incubating overnight. Unbound material is removed by two 80 μl/well washes with Buffer A. Assembly reactions are performed in 60 μl/well reactions comprising test compound, 100 nM of 5′-end fluorescein labeled (TG)25 oligonucleotide (Integrated DNA Technology Inc.) and 2 μM of CA-NC protein (SEQ ID NO: 2), using Buffer A+1% DMSO. Assembly reactions are incubated for 2 hours at room temperature and non-immobilized material is removed by two successive 80 μl/well washes with Buffer A. Finally, 80 μl/well of Buffer A+0.1% sodium dodecyl sulfate (SDS) is added and incubated for 15 minutes prior to quantification of captured fluorescence on a Victor2 plate reader (PerkinElmer Life Sciences) equipped with fluorescein excitation and emission filters using the standard manufacturer's settings for fluorescein fluorescence. The amount of captured fluorescence is considered to be proportional to the level of assembly. The IC50 values for each compound are generated by fitting inhibition curves from ten-point dilution series to the following equation: […]

[3] = biological target: T2, assembled HIV-1 capsid complexes (CA-NC protein, SEQ ID NO: 2) (Human immunodeficiency virus type 1 group M subtype B, UniProt P12493, G226D); assay: Capsid disassembly assay (CDA); assay type: biochemical; conditions: concentration for 50% disassembly of assembled complexes; 2 hours at room temperature; read-out: IC50 (μM) CDA
T2 construct: HIV-1NL4-3 CA-NC, Gag residues 133-432; initiator Met (start codon introduced by PCR primer) (N); made in house; host or cells: E. coli BL21(DE3), pET-11a
Text: The GAG polyprotein is the major structural protein required for HIV viral particle assembly. During the maturation process, Gag is cleaved by the viral protease and releases its four major proteins, matrix (MA), capsid (CA), nucleocapside (NC) and p6, as well as two spacer peptides termed SP1 and SP2. This triggers profound morphological changes to the viral particle as CA will reassemble to form the viral core, a structure that is essential for viral infectivity.
as §1, §2
Reacti-Bind Neutravidin Coated black 384-well plates (Pierce Cat#15402) are washed with 80 μl/well of Buffer A (50 mM Tris pH 8.0; 350 mM NaCl; 10 μM ZnSO4; 0.0025% CHAPS (w/v); 50 μg/ml BSA; 1 mM DTT). Immobilization of a 5′-end biotin labeled (TG)25 oligonucleotide (Integrated DNA Technology Inc.) is carried out by adding 50 μl/well of a 25 nM solution of oligonucleotide in Buffer A+5 mg/ml BSA and incubating overnight. Unbound material is removed by two 80 μl/well washes with Buffer A. Assembly reactions are performed in 60 μl/well reactions comprising 100 nM of 5′-end fluorescein labeled (TG)25 oligonucleotide (Integrated DNA Technology Inc.) and 2 μM of CA-NC protein (SEQ ID NO: 2), using Buffer A. Assembly reactions are incubated for 2 hours at room temperature and non-immobilized material is removed by washing 80 μl/well with Buffer A. Test compounds, serially diluted in Buffer A+0.125% dimethyl sulfoxide (DMSO), are added to the wells (60 μl/well) and incubated at room temperature for 2 hours. […]

In the case of CCN1C(=O)N(c2ccc(O)c(-c3cccnc3)c2)C(=O)N(c2ccccc2)c2cc(C(F)(F)F)ccc21 [Compound 3014], the EC50 [1] is reported as 200 nM, the IC50 [2] is reported as 0.31 µM and the IC50 [3] is reported as 0.14 µM.
